Molecular target: T1, Oxytocin receptor (Homo sapiens, UniProt P30559)
T1 sequence (P30559 whole entry): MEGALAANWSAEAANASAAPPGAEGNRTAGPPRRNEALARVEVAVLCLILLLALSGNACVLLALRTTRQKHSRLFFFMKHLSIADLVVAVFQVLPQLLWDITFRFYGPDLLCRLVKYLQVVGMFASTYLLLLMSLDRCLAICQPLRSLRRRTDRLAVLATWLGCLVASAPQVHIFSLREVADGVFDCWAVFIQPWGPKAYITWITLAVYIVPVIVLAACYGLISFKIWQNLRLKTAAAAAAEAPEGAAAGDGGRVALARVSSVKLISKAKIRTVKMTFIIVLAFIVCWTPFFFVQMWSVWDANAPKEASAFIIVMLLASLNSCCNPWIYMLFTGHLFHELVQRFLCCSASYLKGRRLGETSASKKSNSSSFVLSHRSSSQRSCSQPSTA
Assay: Inhibitory concentration required for antagonist activity against oxytocin receptor
Type: functional

Compound	IC50 [nM]
CC(=O)CCCC(=O)NC1N=C(c2ccccc2)c2ccccc2N(CC(=O)N[C@@H](Cc2ccc(Cl)c(Cl)c2)C(N)=O)C1=O (some centres not stated)	5
CC(=O)CCCC(=O)NC1N=C(c2ccccc2)c2ccccc2N(CC(=O)N[C@@H](Cc2cccs2)C(N)=O)C1=O (some centres not stated)	1

Reference: ChEMBL document CHEMBL1134063, “Identification of a potent and selective oxytocin antagonist, from screening a fully encoded differential release combinatorial chemical library” (Bioorg Med Chem Lett, 2001)
